From patent US12600709B2, “Nonpeptide somatostatin type 5 receptor agonists and uses thereof” (Crinetics Pharmaceuticals, Inc., priority 2019, dated 2026)
Where two headings read alike, the source gives them in different places.

Target: T1, human somatostatin receptor subtype 5 (Homo sapiens, UniProt P35346)
T1 construct: expressed in transfected cells
Assay: cAMP assay for SST5R (inhibition of cAMP in CHO-K1 cells)
Assay type: cell-based
Conditions: inhibition of cAMP via human SST5 receptor, read-out: SST5 potency
Text: General overview: All five SSTR subtypes are Gi coupled G-protein coupled receptors (GPCRs) that lead to decreases in intracellular cyclic AMP (cAMP) when activated by an agonist. Therefore, measurement of intracellular cAMP levels can be used to assess whether compounds of the invention are agonists of SSTR subtypes (John Kelly, Troy Stevens, W. Joseph Thompson, and Roland Seifert, Current Protocols in Pharmacology, 2005, 2.2.1-2.2). One example of an intracellular cAMP assay is described below.
cAMP Assay Protocol for SST5R:
Four days prior to the assay, 2,000 Chinese hamster ovary cells (CHO-K1, ATCC #CCL-61) stably expressing the human somatostatin receptor subtype 5 are plated in each well of a 96-well tissue culture-treated plate in Ham's F12 growth media (ThermoFisher #10-080-CM) supplemented with 10% donor bovine serum (Gemini Bio-Products #100-506), 100 U/mL penicillin; 100 µg/mL streptomycin; 2 mM L-glutamine (Gemini Bio-Products #400-110) and 0.25 mg/mL G418 Sulfate (GoldBio #108321-42-2). The cells are cultured at 37° C., 5% CO2 and 95% humidity. On the day of the assay, the media is aspirated and the cells are treated with 50 μL of 1.6 μM NKH477 (Sigma #N3290) plus various dilutions of compounds of the invention in assay buffer [1× Hank's Balanced Salt Solution (ThermoFisher #SH3058802), 0.5 mM HEPES pH 7.4, 0.1% bovine serum albumin, 0.2 mM 3-Isobutyl-1-methylxanthine (IBMX, VWR #200002-790)]. The cells are incubated for 20 minutes at 37° C. […] The cells are treated with 50 μL of lysis buffer (HRTF cAMP kit, Cisbio) for 30 minutes and then the lysate is diluted to 250 μL with assay buffer. The lysate is transferred to 384-well plates and cAMP detection and visualization antibodies are added and incubated for 1-24 hours at room temperature. The time-resolved fluorescent signal is read with a Tecan M1000Pro multiplate reader. The intracellular cAMP concentrations are calculated by regression to a standard curve and are plotted vs. the concentration of the compounds of the invention and the EC50 of the compounds are calculated using standard methods. All data manipulations are in GraphPad Prism v6 or v7.

T1 sequence (P35346 whole entry): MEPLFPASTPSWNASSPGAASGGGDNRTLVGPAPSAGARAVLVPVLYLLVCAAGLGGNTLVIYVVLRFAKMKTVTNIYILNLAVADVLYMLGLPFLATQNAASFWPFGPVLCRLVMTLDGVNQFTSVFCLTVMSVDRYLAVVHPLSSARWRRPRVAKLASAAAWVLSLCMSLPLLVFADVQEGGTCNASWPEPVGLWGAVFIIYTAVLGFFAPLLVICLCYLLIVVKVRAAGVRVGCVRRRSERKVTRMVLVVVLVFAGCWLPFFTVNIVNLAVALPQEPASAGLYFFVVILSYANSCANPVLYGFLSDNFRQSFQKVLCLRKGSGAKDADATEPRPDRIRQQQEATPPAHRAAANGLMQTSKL

Structure (SMILES)	EC50 (Table A)	EC50 (Table B)
C[C@H](NC(=O)c1cnc(C#N)c(-c2cc(F)cc(F)c2)c1N1CC[C@H](N)C1)c1ccccn1 [1-95, 4-[(3S)-3-aminopyrrolidin-1-yl]-6-cyano-5-(3,5-difluorophenyl)-N-[(1S)-1-(pyridin-2-yl)ethyl]pyridine-3-carboxamide]	< 0.01 µM	–
C[C@H](NC(=O)c1cnc(C#N)c(-c2cc(F)cc(F)c2)c1N1CC[C@H](N)C1)c1ccccc1 [1-97, 4-[(3S)-3-aminopyrrolidin-1-yl]-6-cyano-5-(3,5-difluorophenyl)-N-[(1S)-1-phenylethyl]pyridine-3-carboxamide]	< 0.01 µM	–
Cn1ccc(CNC(=O)c2cnc(C#N)c(-c3cc(F)cc(F)c3)c2N2CC[C@](C)(N)C2)n1 [1-105, 4-[(3S)-3-amino-3-methylpyrrolidin-1-yl]-6-cyano-5-(3,5-difluorophenyl)-N-[(1-methyl-1H-pyrazol-3-yl)methyl]pyridine-3-carboxamide]	0.01 to 0.1 µM	–
Cn1ccnc1CNC(=O)c1cnc(C#N)c(-c2cc(F)cc(F)c2)c1N1CC[C@](C)(N)C1 [1-106, 4-[(3S)-3-amino-3-methylpyrrolidin-1-yl]-6-cyano-5-(3,5-difluorophenyl)-N-[(1-methyl-1H-imidazol-2-yl)methyl]pyridine-3-carboxamide]	0.01 to 0.1 µM	–
Cn1cc(CNC(=O)c2cnc(C#N)c(-c3cc(F)cc(F)c3)c2N2CC[C@](C)(N)C2)cn1 [1-107, 4-[(3S)-3-amino-3-methylpyrrolidin-1-yl]-6-cyano-5-(3,5-difluorophenyl)-N-[(1-methyl-1H-pyrazol-4-yl)methyl]pyridine-3-carboxamide]	0.01 to 0.1 µM	–
Cc1cc(-c2cncc(C(=O)N[C@@H](C)C3CC3)c2N2CC[C@](C)(N)C2)cc(C)n1 [1-131, 4-[(3S)-3-amino-3-methylpyrrolidin-1-yl]-N-[(1S)-1-cyclopropylethyl]-2′,6′-dimethyl-[3,4′-bipyridine]-5-carboxamide]	< 0.01 µM	–
CC(NC(=O)c1cnc(C#N)c(-c2cc(F)cc(F)c2)c1N1CC[C@](C)(N)C1)c1cn(C)nn1 (stereo partly drawn) [1-133, 4-[(3S)-3-amino-3-methylpyrrolidin-1-yl]-6-cyano-5-(3,5-difluorophenyl)-N-[1-(1-methyl-1H-1,2,3-triazol-4-yl)ethyl]pyridine-3-carboxamide]	0.1 to 1 µM	–
C[C@H](NC(=O)c1cnc(C#N)c(-c2cnoc2)c1N1CC[C@](C)(N)C1)C1CC1 [1-134, 4-[(3S)-3-amino-3-methylpyrrolidin-1-yl]-6-cyano-N-[(1S)-1-cyclopropylethyl]-5-(1,2-oxazol-4-yl)pyridine-3-carboxamide]	< 0.01 µM	–
C[C@H](NC(=O)c1cnc(C#N)c(-c2cc(F)cc(Cl)c2)c1N1C[C@@H](N)[C@H](F)C1)C1CC1 [1-138, 4-[(3R,4R)-3-amino-4-fluoropyrrolidin-1-yl]-5-(3-chloro-5-fluorophenyl)-6-cyano-N-[(1S)-1-cyclopropylethyl]pyridine-3-carboxamide]	< 0.01 µM	–
COc1ncc(C(=O)N[C@@H](C)C(F)(F)F)c(N2CC[C@](C)(N)C2)c1-c1cc(F)cc(F)c1 [1-140, 4-[(3S)-3-amino-3-methylpyrrolidin-1-yl]-5-(3,5-difluorophenyl)-6-methoxy-N-[(2S)-1,1,1-trifluoropropan-2-yl]pyridine-3-carboxamide]	< 0.01 µM	–
C[C@H](NC(=O)c1cncc(-c2cc(F)cc(OC(F)F)c2)c1N1CC[C@](C)(N)C1)C1CC1 [1-143, 4-[(3S)-3-amino-3-methylpyrrolidin-1-yl]-N-[(1S)-1-cyclopropylethyl]-5-[3-(difluoromethoxy)-5-fluorophenyl]pyridine-3-carboxamide]	< 0.01 µM	–
COc1ncc(C(=O)NC2CCC(F)(F)CC2)c(N2CC[C@](C)(N)C2)c1-c1cc(F)cc(F)c1 [1-144, 4-[(3S)-3-amino-3-methylpyrrolidin-1-yl]-N-(4,4-difluorocyclohexyl)-5-(3,5-difluorophenyl)-6-methoxypyridine-3-carboxamide]	< 0.01 µM	–
Cc1ncc(C(=O)NC2CC(F)(F)C2)c(N2CC[C@](C)(N)C2)c1-c1cc(F)cc(F)c1 [1-146, 4-[(3S)-3-amino-3-methylpyrrolidin-1-yl]-N-(3,3-difluorocyclobutyl)-5-(3,5-difluorophenyl)-6-methylpyridine-3-carboxamide]	< 0.01 µM	–
Cc1ncc(C(=O)N[C@@H](C)C(F)(F)F)c(N2CC[C@](C)(N)C2)c1-c1cc(F)cc(F)c1 [1-147, 4-[(3S)-3-amino-3-methylpyrrolidin-1-yl]-5-(3,5-difluorophenyl)-6-methyl-N-[(2S)-1,1,1-trifluoropropan-2-yl]pyridine-3-carboxamide]	< 0.01 µM	–
Cc1ncc(C(=O)N[C@@H](C)C2CC2)c(N2CC[C@](C)(N)C2)c1-c1cnn(C)c1 [1-148, 4-[(3S)-3-amino-3-methylpyrrolidin-1-yl]-N-[(1S)-1-cyclopropylethyl]-6-methyl-5-(1-methyl-1H-pyrazol-4-yl)pyridine-3-carboxamide]	< 0.01 µM	–
C[C@H](NC(=O)c1cncc(-c2cccc(OC(F)F)c2)c1N1CC[C@](C)(N)C1)C1CC1 [1-149, 4-[(3S)-3-amino-3-methylpyrrolidin-1-yl]-N-[(1S)-1-cyclopropylethyl]-5-[3-(difluoromethoxy)phenyl]pyridine-3-carboxamide]	< 0.01 µM	–
COc1ncc(C(=O)NC2CCC(F)(F)CC2)c(N2CC[C@H](N)C2)c1-c1cc(F)cc(F)c1 [1-150, 4-[(3S)-3-aminopyrrolidin-1-yl]-N-(4,4-difluorocyclohexyl)-5-(3,5-difluorophenyl)-6-methoxypyridine-3-carboxamide]	< 0.01 µM	–
COc1ncc(C(=O)N[C@@H](C)C2CC2)c(N2CC[C@H](N)C2)c1-c1cc(F)cc(F)c1 [1-152, 4-[(3S)-3-aminopyrrolidin-1-yl]-N-[(1S)-1-cyclopropylethyl]-5-(3,5-difluorophenyl)-6-methoxypyridine-3-carboxamide]	< 0.01 µM	–

Further lines, results first:

EC50 (Table A)	EC50 (Table B)	Structure (SMILES)
0.1 to 1 µM	–	COC[C@]1(N)CCN(c2c(C(=O)N[C@@H](C)C3CC3)cnc(C#N)c2-c2cc(F)cc(F)c2)C1 [1-117, 4-[(3S)-3-amino-3-(methoxymethyl)pyrrolidin-1-yl]-6-cyano-N-[(1S)-1-cyclopropylethyl]-5-(3,5-difluorophenyl)pyridine-3-carboxamide]
< 0.01 µM	–	COc1ncc(C(=O)N[C@@H](C)C2CC2)c(N2CC[C@](C)(N)C2)c1-c1cc(F)cc(F)c1 [1-141, 4-[(3S)-3-amino-3-methylpyrrolidin-1-yl]-N-[(1S)-1-cyclopropylethyl]-5-(3,5-difluorophenyl)-6-methoxypyridine-3-carboxamide]
< 0.01 µM	–	C[C@H](NC(=O)c1cncc(-c2cncc(F)c2)c1N1CC[C@](C)(N)C1)C1CC1 [1-142, 4-[(3S)-3-amino-3-methylpyrrolidin-1-yl]-N-[(1S)-1-cyclopropylethyl]-5′-fluoro-[3,3′-bipyridine]-5-carboxamide]
< 0.01 µM	–	COc1ncc(C(=O)N[C@H]2CCC(F)(F)C2)c(N2CC[C@](C)(N)C2)c1-c1cc(F)cc(F)c1 [1-145, 4-[(3S)-3-amino-3-methylpyrrolidin-1-yl]-N-[(1S)-3,3-difluorocyclopentyl]-5-(3,5-difluorophenyl)-6-methoxypyridine-3-carboxamide]
< 0.01 µM	–	COc1ncc(C(=O)N[C@@H](C)C(F)(F)F)c(N2CC[C@H](N)C2)c1-c1cc(F)cc(F)c1 [1-151, 4-[(3S)-3-aminopyrrolidin-1-yl]-5-(3,5-difluorophenyl)-6-methoxy-N-[(2S)-1,1,1-trifluoropropan-2-yl]pyridine-3-carboxamide]
> 1 µM	> 1 µM	Cc1ncc(C(=O)N[C@@H](C)C2CC2)c(N2CC[C@](C)(N)C2)c1-c1cnn(CC(F)(F)F)c1 [1-155, 4-[(3S)-3-amino-3-methylpyrrolidin-1-yl]-N-[(1S)-1-cyclopropylethyl]-6-methyl-5-[1-(2,2,2-trifluoroethyl)-1H-pyrazol-4-yl]pyridine-3-carboxamide]
0.01 to 0.1 µM	–	Cc1ncc(C(=O)N[C@@H](C)C2CC2)c(N2CC[C@](C)(N)C2)c1-c1cnn(C2CC2)c1 [1-156, 4-[(3S)-3-amino-3-methylpyrrolidin-1-yl]-5-(1-cyclopropyl-1H-pyrazol-4-yl)-N-[(1S)-1-cyclopropylethyl]-6-methylpyridine-3-carboxamide]
0.01 to 0.1 µM	–	C[C@H](NC(=O)c1cncc(-c2ccc3c(c2)OC(F)(F)O3)c1N1CC[C@](C)(N)C1)C1CC1 [1-175, 4-[(3S)-3-amino-3-methylpyrrolidin-1-yl]-N-[(1S)-1-cyclopropylethyl]-5-(2,2-difluoro-2H-1,3-benzodioxol-5-yl)pyridine-3-carboxamide]
